Measured values from ChEMBL document CHEMBL1158459, “Discovery of a peroxisome proliferator activated receptor gamma (PPARgamma) modulator with balanced PPARalpha activity for the treatment of type 2 diabetes and dyslipidemia” (J Med Chem, 2009).
Active and inactive are the calls of the source. The calls are words filed in the database; no cut-off is given here.

How the values were obtained:
[1] = Cmax in Syrian golden hamster at 1 mg/kg, po once daily for 9 days; assay type: ADME, organism-based, Mesocricetus auratus; set-up: dose 1 mg/kg, route oral; conditions: in vivo
[2] = tested on: Rattus norvegicus; test: Toxicity in Zucker fa/fa rat assessed as increase in plasma volume at 10 mg/kg, po treated once daily for 7 days; conditions: in vivo, 168 h
[3] = AUC in Beagle dog at 3 mg/kg, po once daily for 14 days; assay type: ADME, organism-based, Canis lupus familiaris; set-up: dose 3 mg/kg, route oral; conditions: plasma
[4] = tested on: Rattus norvegicus; test: Antidiabetic activity in Zucker fa/fa rat assessed as decrease in free fatty acid levels at 100 mg/kg, po once daily for 7 days; assay type: functional, organism-based; set-up: dose 100 mg/kg
[5] = molecular target: Cytochrome P450 2D6 (Homo sapiens, UniProt P10635); test: Inhibition of CYP2D6; assay type: ADME
[6] = tested on: Mus musculus; test: Antidiabetic activity in C57BLKS/J-m+/+Leprdb db/db mouse assessed as reduction in plasma glucose levels at 1 mg/kg, po once daily for 11 days relative to control; assay type: functional; set-up: scale not given: the % may be the effect or the level left
[7] = molecular target: T1, Peroxisome proliferator-activated receptor gamma (Homo sapiens, UniProt P37231)
T1 sequence (P37231 whole entry): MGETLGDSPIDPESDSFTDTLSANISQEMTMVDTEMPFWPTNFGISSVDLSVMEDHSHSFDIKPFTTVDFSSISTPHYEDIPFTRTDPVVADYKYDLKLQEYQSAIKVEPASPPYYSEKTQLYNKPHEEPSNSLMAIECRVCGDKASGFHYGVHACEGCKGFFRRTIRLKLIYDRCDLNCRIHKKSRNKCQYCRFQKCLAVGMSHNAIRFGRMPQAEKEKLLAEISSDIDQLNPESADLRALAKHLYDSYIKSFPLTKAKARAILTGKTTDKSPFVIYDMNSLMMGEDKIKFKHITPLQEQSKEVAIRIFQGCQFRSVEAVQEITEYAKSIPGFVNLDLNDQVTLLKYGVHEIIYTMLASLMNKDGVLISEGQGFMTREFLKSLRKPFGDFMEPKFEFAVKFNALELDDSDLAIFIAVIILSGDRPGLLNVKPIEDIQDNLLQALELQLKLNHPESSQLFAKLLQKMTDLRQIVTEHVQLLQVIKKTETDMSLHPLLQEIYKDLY
Description: Agonist activity at human PPARgamma receptor expressed in african green monkey COS1 cells co-transfected with fused yeast Gal4-DBD by transactivation assay

[8] = AUC in rat at 2 mg/kg, po; assay type: ADME, organism-based, Plasma; set-up: dose 2 mg/kg, route oral; conditions: plasma
[9] = Cmax in Syrian golden hamster at 0.3 mg/kg, po once daily for 9 days; assay type: ADME, organism-based, Mesocricetus auratus; set-up: dose 0.3 mg/kg, route oral; conditions: in vivo
[10] = tested on: Rattus norvegicus; test: Toxicity in Zucker fa/fa rat assessed as increase in heart weight at 15 mg/kg, po treated once daily for 7 days; assay type: organism-based; set-up: dose 15 mg/kg, route oral; conditions: in vivo, 168 h
[11] = molecular target: Thyroid hormone receptor alpha (Homo sapiens) (UniProt P10827); test: Binding affinity to TRalpha up to 10 uM
[12] = AUC in Beagle dog at 1 mg/kg, po once daily for 14 days; assay type: ADME, organism-based, Canis lupus familiaris; set-up: dose 1 mg/kg, route oral; conditions: plasma
[13] = tested on: Rattus norvegicus; test: Antidiabetic activity in Zucker fa/fa rat assessed as decrease in triglyceride levels at 10 mg/kg, po once daily for 7 days; assay type: functional, organism-based; set-up: dose 10 mg/kg
[14] = molecular target: Peroxisome proliferator-activated receptor alpha (Canis lupus familiaris, UniProt Q95N78); test: Agonist activity at dog PPARalpha receptor; assay type: functional
[15] = Cmax in Beagle dog at 1 mg/kg, po once daily for 14 days; assay type: ADME, organism-based, Canis lupus familiaris; set-up: dose 1 mg/kg, route oral; conditions: in vivo
[16] = AUC in Syrian golden hamster at 1 mg/kg, po once daily for 9 days; assay type: ADME, organism-based, Mesocricetus auratus; set-up: dose 1 mg/kg, route oral; conditions: plasma
[17] = tested on: Rattus norvegicus; test: Antidiabetic activity in Zucker fa/fa rat assessed as decrease in triglyceride levels at 0.03 mg/kg, po once daily for 7 days; assay type: functional, organism-based; set-up: dose 0.03 mg/kg
[18] = molecular target: Oxysterols receptor LXR-beta (Homo sapiens) (UniProt P55055); test: Activity at LXRbeta receptor up to 10 uM by transactivation assay
[19] = tested on: Rattus norvegicus; test: Antidiabetic activity in Zucker fa/fa rat assessed as decrease in triglyceride levels at 3 mg/kg, po once daily for 7 days; assay type: functional, organism-based; set-up: dose 3 mg/kg
[20] = tested on: Rattus norvegicus; test: Antidiabetic activity in Zucker fa/fa rat assessed as decrease in free fatty acid levels at 10 mg/kg, po once daily for 7 days; assay type: functional, organism-based; set-up: dose 10 mg/kg
[21] = AUC in high fat diet-fed streptozotocin-treated mouse at 5 mg/kg, po once daily for 12 days; assay type: ADME, organism-based; set-up: dose 5 mg/kg, route oral; conditions: plasma
[22] = tested on: Rattus norvegicus; test: Antidiabetic activity in Zucker fa/fa rat assessed as decrease in free fatty acid levels at 3 mg/kg, po once daily for 7 days; assay type: functional, organism-based; set-up: dose 3 mg/kg
[23] = molecular target: Thyroid hormone receptor alpha (Homo sapiens) (UniProt P10827); test: Activity at TRalpha receptor up to 10 uM by transactivation assay
[24] = molecular target: Estrogen receptor (Homo sapiens) (UniProt P03372); test: Binding affinity to ERalpha up to 10 uM
[25] = tested on: Syrian golden hamster; test: Antidiabetic activity in Syrian golden hamster assessed as reduction in triglyceride level at 3 mg/kg, po once daily for 9 days relative to control; assay type: functional, Mesocricetus auratus; set-up: scale not given: the % may be the effect or the level left
[26] = tested on: Mus musculus; test: Antidiabetic activity in C57BLKS/J-m+/+Leprdb db/db mouse assessed as reduction in plasma triglyceride levels at 10 mg/kg, po once daily for 11 days relative to control; assay type: functional; set-up: scale not given: the % may be the effect or the level left
[27] = tested on: Rattus norvegicus; test: Antidiabetic activity in Zucker fa/fa rat assessed as decrease in free fatty acid levels at 0.3 mg/kg, po once daily for 7 days; assay type: functional, organism-based; set-up: dose 0.3 mg/kg
[28] = tested on: Mus musculus; test: Antidiabetic activity in C57BLKS/J-m+/+Leprdb db/db mouse assessed as reduction in plasma glucose levels at 3 mg/kg, po once daily for 11 days relative to control; assay type: functional; set-up: scale not given: the % may be the effect or the level left
[29] = tested on: Canis familiaris; test: Antidiabetic activity in Beagle dog assessed as reduction in total cholesterol level at 1 mg/kg, po once daily for 14 days relative to control; assay type: functional, Canis lupus familiaris; set-up: scale not given: the % may be the effect or the level left
[30] = tested on: Mus musculus; test: Antidiabetic activity in ob/ob mouse assessed as insulin correction at 10 mg/kg, po once daily for 5 days relative to control; assay type: functional
[31] = tested on: Rattus norvegicus; test: Toxicity in Zucker fa/fa rat assessed as increase in plasma volume at 15 mg/kg, po treated once daily for 7 days; assay type: organism-based; set-up: dose 15 mg/kg, route oral; conditions: in vivo, 168 h
[32] = molecular target: Glucocorticoid receptor (Homo sapiens) (UniProt P04150); test: Activity at GR receptor up to 10 uM by transactivation assay
[33] = tested on: Syrian golden hamster; test: Antidiabetic activity in Syrian golden hamster assessed as reduction in triglyceride level at 0.3 mg/kg, po once daily for 9 days relative to control; assay type: functional, Mesocricetus auratus; set-up: scale not given: the % may be the effect or the level left
[34] = AUC in C57BLKS/J-m+/+Leprdb db/db mouse at 10 mg/kg, po once daily for 11 days; assay type: ADME, organism-based; set-up: dose 10 mg/kg, route oral; conditions: plasma
[35] = tested on: Mus musculus; test: Antidiabetic activity in ob/ob mouse assessed as reduction in plasma triglyceride levels at 10 mg/kg, po once daily for 5 days relative to control; assay type: functional; set-up: scale not given: the % may be the effect or the level left
[36] = tested on: Rattus norvegicus; test: Antidiabetic activity in Zucker fa/fa rat assessed as decrease in free fatty acid levels at 15 mg/kg, po once daily for 7 days; assay type: functional, organism-based; set-up: dose 15 mg/kg
[37] = molecular target: T1, Peroxisome proliferator-activated receptor gamma; remark: listed apart in the source
Description: Inhibition of human PPARgamma receptor by scintillation proximity assay

[38] = molecular target: Oxysterols receptor LXR-alpha (Homo sapiens) (UniProt Q13133); test: Binding affinity to LXRalpha up to 10 uM
[39] = tested on: Rattus norvegicus; test: Antidiabetic activity in Zucker fa/fa rat assessed as decrease in triglyceride levels at 15 mg/kg, po once daily for 7 days; assay type: functional, organism-based; set-up: dose 15 mg/kg
[40] = tested on: Rattus norvegicus; test: Toxicity in Sprague-Dawley rat assessed as hematocrit at 60 mg/kg, po once daily for 14 days; assay type: organism-based; set-up: dose 60 mg/kg, route oral; conditions: in vivo, 336 h
[41] = Cmax in Syrian golden hamster at 3 mg/kg, po once daily for 9 days; assay type: ADME, organism-based, Mesocricetus auratus; set-up: dose 3 mg/kg, route oral; conditions: in vivo

Thyroid hormone receptor alpha (Homo sapiens), sequence (P10827 whole entry): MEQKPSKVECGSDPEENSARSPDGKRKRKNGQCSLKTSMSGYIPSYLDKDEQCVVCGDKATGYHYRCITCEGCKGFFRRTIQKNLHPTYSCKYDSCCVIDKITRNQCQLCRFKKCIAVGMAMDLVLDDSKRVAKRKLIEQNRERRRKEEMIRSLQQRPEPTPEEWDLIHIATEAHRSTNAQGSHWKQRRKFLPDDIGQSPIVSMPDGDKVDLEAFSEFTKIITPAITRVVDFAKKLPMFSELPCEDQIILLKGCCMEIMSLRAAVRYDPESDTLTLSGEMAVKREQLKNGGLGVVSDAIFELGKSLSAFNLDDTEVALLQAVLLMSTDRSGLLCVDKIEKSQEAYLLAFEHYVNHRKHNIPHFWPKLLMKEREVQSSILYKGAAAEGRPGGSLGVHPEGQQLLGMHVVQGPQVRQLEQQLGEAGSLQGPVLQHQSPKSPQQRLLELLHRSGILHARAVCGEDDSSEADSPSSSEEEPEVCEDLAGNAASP
Cytochrome P450 2D6, sequence (P10635 whole entry): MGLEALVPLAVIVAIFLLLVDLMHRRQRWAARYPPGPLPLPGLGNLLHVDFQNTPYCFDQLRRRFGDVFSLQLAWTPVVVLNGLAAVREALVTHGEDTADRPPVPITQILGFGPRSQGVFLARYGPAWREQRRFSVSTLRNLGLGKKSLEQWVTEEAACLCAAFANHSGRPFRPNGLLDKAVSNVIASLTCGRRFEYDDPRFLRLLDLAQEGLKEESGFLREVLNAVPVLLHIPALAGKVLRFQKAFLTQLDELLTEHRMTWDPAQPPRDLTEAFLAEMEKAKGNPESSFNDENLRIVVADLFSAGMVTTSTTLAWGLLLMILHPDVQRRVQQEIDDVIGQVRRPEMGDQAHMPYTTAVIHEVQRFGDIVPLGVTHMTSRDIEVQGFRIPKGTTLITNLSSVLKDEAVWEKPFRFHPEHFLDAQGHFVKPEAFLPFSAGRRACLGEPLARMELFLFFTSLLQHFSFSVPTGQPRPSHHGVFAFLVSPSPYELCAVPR
Glucocorticoid receptor (Homo sapiens), sequence (P04150 whole entry): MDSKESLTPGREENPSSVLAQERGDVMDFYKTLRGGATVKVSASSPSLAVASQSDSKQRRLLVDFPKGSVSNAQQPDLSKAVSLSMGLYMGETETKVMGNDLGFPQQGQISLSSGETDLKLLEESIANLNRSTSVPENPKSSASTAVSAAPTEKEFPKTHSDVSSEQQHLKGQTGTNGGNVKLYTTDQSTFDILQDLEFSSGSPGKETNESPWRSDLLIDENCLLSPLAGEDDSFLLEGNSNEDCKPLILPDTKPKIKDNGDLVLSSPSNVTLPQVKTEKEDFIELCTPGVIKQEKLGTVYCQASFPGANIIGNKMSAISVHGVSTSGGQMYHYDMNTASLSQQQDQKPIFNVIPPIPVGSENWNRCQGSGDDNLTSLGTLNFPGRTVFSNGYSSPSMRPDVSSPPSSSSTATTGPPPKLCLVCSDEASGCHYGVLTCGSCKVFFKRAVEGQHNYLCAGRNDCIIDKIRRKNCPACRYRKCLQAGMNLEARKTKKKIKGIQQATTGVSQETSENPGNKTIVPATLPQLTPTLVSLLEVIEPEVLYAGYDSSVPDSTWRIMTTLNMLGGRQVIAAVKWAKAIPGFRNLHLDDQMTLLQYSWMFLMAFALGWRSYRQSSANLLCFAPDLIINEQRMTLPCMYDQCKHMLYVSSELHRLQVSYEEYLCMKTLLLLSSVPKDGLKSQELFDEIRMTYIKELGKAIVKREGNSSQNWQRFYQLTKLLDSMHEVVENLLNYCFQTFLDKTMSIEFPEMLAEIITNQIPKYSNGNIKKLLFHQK
Peroxisome proliferator-activated receptor alpha, sequence (Q95N78 whole entry): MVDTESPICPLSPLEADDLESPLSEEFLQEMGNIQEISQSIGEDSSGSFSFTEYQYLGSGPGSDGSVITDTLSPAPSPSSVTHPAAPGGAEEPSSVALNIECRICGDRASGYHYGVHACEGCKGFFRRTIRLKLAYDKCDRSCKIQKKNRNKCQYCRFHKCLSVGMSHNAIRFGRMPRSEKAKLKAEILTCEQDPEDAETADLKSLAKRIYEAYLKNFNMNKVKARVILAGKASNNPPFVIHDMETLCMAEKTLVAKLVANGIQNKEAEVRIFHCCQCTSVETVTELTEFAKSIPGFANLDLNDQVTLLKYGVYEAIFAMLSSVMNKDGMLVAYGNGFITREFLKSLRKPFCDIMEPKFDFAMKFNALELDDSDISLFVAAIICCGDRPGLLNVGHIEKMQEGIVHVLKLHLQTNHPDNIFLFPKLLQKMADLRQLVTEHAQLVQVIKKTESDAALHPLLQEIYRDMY
Oxysterols receptor LXR-beta (Homo sapiens), sequence (P55055 whole entry): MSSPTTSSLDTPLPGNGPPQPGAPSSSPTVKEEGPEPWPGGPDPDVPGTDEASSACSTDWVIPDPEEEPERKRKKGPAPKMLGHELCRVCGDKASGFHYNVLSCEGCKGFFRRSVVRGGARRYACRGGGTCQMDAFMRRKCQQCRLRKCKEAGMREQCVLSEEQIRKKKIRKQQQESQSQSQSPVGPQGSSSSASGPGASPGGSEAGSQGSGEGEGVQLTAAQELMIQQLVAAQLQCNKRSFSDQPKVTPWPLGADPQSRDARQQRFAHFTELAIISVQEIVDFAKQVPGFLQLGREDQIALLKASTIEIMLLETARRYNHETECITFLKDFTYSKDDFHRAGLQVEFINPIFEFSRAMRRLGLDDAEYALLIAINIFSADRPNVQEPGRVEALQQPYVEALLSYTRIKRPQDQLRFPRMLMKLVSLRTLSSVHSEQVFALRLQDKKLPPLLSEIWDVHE
Oxysterols receptor LXR-alpha (Homo sapiens), sequence (Q13133 whole entry): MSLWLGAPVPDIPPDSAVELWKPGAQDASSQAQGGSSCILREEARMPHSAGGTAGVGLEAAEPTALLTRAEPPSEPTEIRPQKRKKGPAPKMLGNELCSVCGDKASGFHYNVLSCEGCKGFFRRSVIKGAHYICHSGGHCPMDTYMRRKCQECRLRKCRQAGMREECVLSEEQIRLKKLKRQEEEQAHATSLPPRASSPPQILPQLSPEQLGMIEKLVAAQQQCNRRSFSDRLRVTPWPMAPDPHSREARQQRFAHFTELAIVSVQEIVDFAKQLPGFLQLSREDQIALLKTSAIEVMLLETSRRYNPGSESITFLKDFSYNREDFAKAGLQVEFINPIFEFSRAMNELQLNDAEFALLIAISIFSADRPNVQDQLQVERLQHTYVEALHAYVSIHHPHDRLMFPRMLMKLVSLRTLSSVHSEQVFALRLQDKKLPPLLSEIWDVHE
Estrogen receptor (Homo sapiens), sequence (P03372 whole entry): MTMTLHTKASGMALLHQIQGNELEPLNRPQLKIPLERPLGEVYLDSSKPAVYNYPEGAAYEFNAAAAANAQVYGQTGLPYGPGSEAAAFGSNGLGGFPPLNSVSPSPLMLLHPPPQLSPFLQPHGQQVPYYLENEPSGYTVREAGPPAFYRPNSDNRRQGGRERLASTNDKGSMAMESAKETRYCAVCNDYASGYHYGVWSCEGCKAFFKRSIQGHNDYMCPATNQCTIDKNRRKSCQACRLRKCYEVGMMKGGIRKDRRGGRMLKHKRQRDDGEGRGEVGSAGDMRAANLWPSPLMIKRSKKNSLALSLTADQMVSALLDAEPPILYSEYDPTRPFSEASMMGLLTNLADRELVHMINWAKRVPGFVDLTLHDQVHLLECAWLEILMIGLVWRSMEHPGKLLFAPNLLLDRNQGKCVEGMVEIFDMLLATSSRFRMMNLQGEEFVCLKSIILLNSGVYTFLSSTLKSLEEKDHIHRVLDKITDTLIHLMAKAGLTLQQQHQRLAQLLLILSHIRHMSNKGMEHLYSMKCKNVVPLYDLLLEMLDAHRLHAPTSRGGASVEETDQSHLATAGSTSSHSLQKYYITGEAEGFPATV

CC[C@@H](Oc1cccc(Cn2c(C)c(C(=O)c3ccc(Cl)cc3)c3ccc(OC(F)(F)F)cc32)c1)C(=O)O
Cmax [1]: 70 nM
Activity [2]: Toxic
AUC at 336 h [3]: 21.4 µM·h
Activity [4]: Active
IC50 [5]: 7000 nM
Activity [6]: 78%
EC50 [7]: 2 nM
AUC [8]: 1.5 µM·h
Cmax [9]: 20 nM
Activity [10]: Non-toxic
Activity [11]: inactive
AUC at 336 h [12]: 5.41 µM·h
Activity [13]: Active
EC50 [14]: 0.55 nM
Cmax [15]: 1030 nM
AUC at 216 h [16]: 0.55 µM·h
Activity [17]: Active
Activity [18]: inactive
Activity [19]: Active
Activity [20]: Active
AUC at 288 h [21]: 2.7 µM·h
Activity [22]: Active
Activity [23]: inactive
Activity [24]: inactive
Activity [25]: 56.9%
Activity [26]: 84%
Activity [27]: Active
Activity [28]: 98%
Activity [29]: 12.8%
Activity [30]: 89%
Activity [31]: Non-toxic
Activity [32]: inactive
Activity [33]: 10.1%
AUC at 264 h [34]: 9.6 µM·h
Activity [35]: 50%
Activity [36]: Active
IC50 [37]: 9 nM
Activity [38]: inactive
Activity [39]: Active
Activity [40]: -8%
Cmax [41]: 600 nM
